Results published in patent US6653504B1, “Non-hygroscopic salts of active ingredients having therapeutical and/or nutritional activities and orally administrable compositions containing same” (Sigma-Tau Industrie Farmaceutiche Riunite S.p.A., priority 1999, dated 2003).
Where a name gives a salt, the structure may show the parent alone.

Experiment: Hygroscopicity: increase in weight and appearance after exposure to humidity
Format: physicochemical
Settings: exposure to 70±5% relative humidity, at 25° C. for 24 hours

Molecule | Appearance | Increase in weight (%)
CC(=O)O[C@H](CC(=O)O)C[N+](C)(C)C.[Cl-] [Acetyl-L-carnitine chloride] | clumped mass | 8%
CC(=O)O[C@H](CC(=O)[O-])C[N+](C)(C)C [Acetyl-L-carnitine inner salt] | deliquescent | 19%
C[N+](C)(C)C[C@H](O)CC(=O)[O-] [L-carnitine inner salt] | deliquescent | 23%

Experiment: not given
Settings: background statement, no conditions given; cited from earlier work

Molecule | Hygroscopicity of known salts
C[N+](C)(C)C[C@H](O)CC(=O)O.C[N+](C)(C)C[C@H](O)CC(=O)O.O=C([O-])C(O)C(O)C(=O)[O-] [L(−)-carnitine tartrate] | non-hygroscopic
CC(=O)O[C@H](CC(=O)O)C[N+](C)(C)C.O=C([O-])/C=C/C(=O)O [acetyl L(−)-carnitine acid fumarate] | strongly hygroscopic
L(−)-carnitine acid fumarate | non-hygroscopic
